Tests used:
biofilm = assay: Biofilm coupon test with modified Robbins device (ATP, RLU); format: cell-based, bacteria; conditions: water upstream of and near the RO membrane; average of 3 or 4 coupons
Description: (§1) Marsh water was fed into a storage tank via a 1200-foot long (365 m) hose. A biocide was added to the hose at a point 20 feet (6.1 m) before the hose connection to the storage tank. Water was fed from the storage tank to a reverse osmosis (RO) system equipped with an ultrafiltration (UF) membrane upstream of an RO membrane. In this system, the UF membrane was a non-protected membrane and the RO membrane was a protected membrane. An oxidation-reduction potential (ORP) electrode was in the water at a point upstream of and near the RO membrane, and the ORP electrode was connected to an ORP controller unit (ORP electrode: RD2, Hach Company). Measurements from the ORP were monitored, and the reducing agent was pumped into the RO system downstream of the ORP electrode as needed as indicated by the ORP reading from the ORP electrode. […]
(§2) The water was sampled at various times upstream of and near the UF membrane, and the water was also sampled at various times upstream of and near the RO membrane. […] Functionality of the RO membrane, types of microbes at RO membrane after treatment, biocide efficacy on microbes in water, and biocide efficacy for biofilm growth were determined. […]

Yeast/mold = assay: Types of microbes at RO membrane after treatment (membrane autopsy): yeast/mold; format: cell-based; conditions: on RO membrane after 30 days of exposure to the biocide
Description: as §1, §2

microbes in water = assay: Biocide efficacy on microbes in water (planktonic biocidal reduction, marsh water); format: cell-based
Description: Marsh water was fed into a storage tank via a 1200-foot long (365 m) hose. A biocide was added to the hose at a point 20 feet (6.1 m) before the hose connection to the storage tank. Water was fed from the storage tank to a reverse osmosis (RO) system equipped with an ultrafiltration (UF) membrane upstream of an RO membrane. In this system, the UF membrane was a non-protected membrane and the RO membrane was a protected membrane. An oxidation-reduction potential (ORP) electrode was in the water at a point upstream of and near the RO membrane, and the ORP electrode was connected to an ORP controller unit (ORP electrode: RD2, Hach Company). Measurements from the ORP were monitored, and the reducing agent was pumped into the RO system downstream of the ORP electrode as needed as indicated by the ORP reading from the ORP electrode.
The biocides tested were bleach, 1,3-dibromo-5,5-dimethylhydantoin (Br2DMH; Albemarle Corporation), and an aqueous solution formed from bromine chloride and sulfamic acid containing over 50,000 ppm of active halogen having a pH in the range of 13 to 14 (BrCl/sulfamic acid; STABROM® 909 biocide, Albemarle Corporation). The reducing agent used with each biocide was […].
The water was sampled at various times upstream of and near the UF membrane, and the water was also sampled at various times upstream of and near the RO membrane. The duration of testing for each biocide was approximately 30 days. Functionality of the RO membrane, types of microbes at RO membrane after treatment, biocide efficacy on microbes in water, and biocide efficacy for biofilm growth were determined.
For the data in Table 3, the water was sampled upstream of and near the UF membrane, and upstream of and near the RO membrane The data in Table 3 are an average of samples from several days for planktonic biocidal reduction.

Aerobic bacteria = assay: Types of microbes at RO membrane after treatment (membrane autopsy): aerobic bacteria; format: cell-based; conditions: on RO membrane after 30 days of exposure to the biocide
Description: as §1, §2

[1] = untreated water to RO feed water

In the case of CC1(C)C(=O)N(Br)C(=O)N1Br [Br2DMH, 1,3-dibromo-5,5-dimethylhydantoin], the “ATP on Polyamide coupon” value (biofilm) is reported as 5825 RLU, the Yeast/mold rating (Yeast/mold) is reported as “Low (0 to 100)” and the “Log reduction, total (untreated to RO)” value (microbes in water; [1]) is reported as 2.1. For the same molecule, the “Reduction, total (untreated to RO)” value (microbes in water; [1]) was 99.2%, the RO feed water (microbes in water; water sampled upstream of and near the RO membrane, average of samples from several days) was 2.2 log cfu/mL and the UF feed water (microbes in water; water sampled upstream of and near the UF membrane, average of samples from several days) was 3.1 log cfu/mL. For the same molecule, the Aerobic bacteria rating (Aerobic bacteria) was “High (10,000 to 1,000,000)”.

From patent publication US20260167541A1, “BIOCIDAL CONTROL IN AQUEOUS MEMBRANE SEPARATION SYSTEMS” (Albemarle Corporation, priority 2023, published 2026)
